From patent US20080267948A1, “Croos-B Structure Binding Compounds” (priority 2005, published 2008)

What was measured:
amyloid γ-globulins = assay: Inhibition ELISA of monoclonal 7H2H2 binding to immobilized amyloid γ-globulins; design: species or system human
Method: When binding of a monoclonal antibody to an aggregate with amyloid-like properties was confirmed, the influence of Congo red on this interaction was tested as follows. Amyloid γ-globulins were coated onto a high-binding plate (Greiner Microlon, Bio-One GmbH, Frickenhausen, Germany), blocked with Roche blocking reagent, and overlayed with 10 times diluted hybridoma cell culture medium with a concentration series of Congo red. In addition, the inhibitory effect of compounds with cross-(structure conformation on binding of a monoclonal antibody to immobilized cross-β structure conformation comprising antigens was tested with an ELISA set-up. For this purpose, a limiting amount of antigen, i.e. 0.5 μg ml^−1 amyloid γ-globulins, was immobilized onto a Greiner high-binding plate. It was determined that 80 times diluted hybridoma cell culture supernatant contains an amount of antibody that results in less than maximal signal when used in ELISAs with immobilized proteins with cross-β structure conformation (not shown). Now, concentration series of freshly dissolved-, amyloid-, acid-denatured- and base-denatured γ-globulins at 0.1, 1, 10 and 100 μg ml^−1 was added to the 80 times diluted hybridoma cell culture supernatant, and used to overlay the immobilized amyloid γ-globulins. The amount of bound antibody was determined with RAMPO. […]

[1] = system: amyloid-β and glycated albumin; assay: ELISA binding of tPA to immobilized amyloid-β and glycated albumin with Congo red or ThT; details: concentration series of dye
Method: After 5 washes with wash buffer followed by two washes with PBS, binding of antibodies was assessed. […] Triplicates were averaged and standard deviations calculated.

[2] = target: T1, glycated haemoglobin (Hb-AGE) (Homo sapiens, UniProt P68871+P69905); assay: ELISA binding of IgIV to immobilized Hb-AGE and inhibition studies; details: 15 μg/ml IgIV, concentration series of competitor
T1 construct: purchased Sigma-Aldrich H7379
T1 sequence (P69905 2-142 limits assumed): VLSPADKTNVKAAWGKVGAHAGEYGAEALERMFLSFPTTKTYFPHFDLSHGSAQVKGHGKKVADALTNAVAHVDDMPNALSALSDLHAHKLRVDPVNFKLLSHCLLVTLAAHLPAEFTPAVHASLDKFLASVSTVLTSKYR
T1 sequence (P68871 2-147 limits assumed): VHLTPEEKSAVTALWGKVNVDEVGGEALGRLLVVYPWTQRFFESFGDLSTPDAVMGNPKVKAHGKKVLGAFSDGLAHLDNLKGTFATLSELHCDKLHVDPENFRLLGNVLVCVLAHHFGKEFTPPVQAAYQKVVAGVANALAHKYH
Method: Binding of IgIV was determined using an enzyme linked immunosorbent assay (ELISA) set-up. For this purpose 50 μl/well of potential ligands at indicated concentrations or coat buffer only for control and background measurement purposes, were coated overnight at 4° C., with motion, in 50 mM NaHCO3 pH 9.6. Glycated albumin and Hb (BSA-AGE and Hb-AGE), control BSA and control Hb were coated at 5 μg/ml. The BSA and Hb controls were prepared freshly by dissolving lyophilized proteins at 1 mg/ml in PBS upon resuspending by pipetting, followed by a 30′ period at the roller bank, at room temperature. The protein solutions were centrifuged for 10′ at 16,000*g and diluted in coat buffer. Coat controls were performed with anti-glycated protein antibody, anti-albumin antibody, anti-Hb antibody. The alkaline phosphatase-conjugated anti-human Ig antibodies were controlled by coating the IgIV's and overlaying them the secondary antibodies. After coating the plates were washed twice with 50 mM Tris-HCl pH 7.3, 150 mM NaCl, 0.1% v/v Tween20, and blocked with 175 μl/well Blocking reagent (Roche Diagnostics, Almere, The Netherlands; catalogue number 11112589001), for 1 h at room temperature, with motion. Plates were washed twice and incubated in triplicate with indicated antibodies dilution series, plasma dilution series or controls, including binding buffer only, in the absence or presence of putative inhibitors, in binding buffer; PBS/0.1% v/v Tween20, at 50 μl/well, for 1 h at room temperature, with constant motion. After four wash cycles, secondary antibodies were added to the wells, 50 μl/well, for 45′ at room temperature, with motion. RAMPO and SWARPO were used at 2000 times dilution, goat anti-human IgG antibodies were diluted 3000 times, goat anti-human IgM antibodies were diluted 1000 times. After 5 washes with wash buffer followed by two washes with PBS, binding of antibodies was assessed. […] After 5′ absorbance was read at 405 nm. […] After 5′ absorbance was read at 490 nm. […] Triplicates were averaged and standard deviations calculated. […]

[3] = target: T2, Hb-AGE (glucose-6-phosphate modified human haemoglobin) (Homo sapiens, UniProt P68871+P69905); assay: ELISA binding of tPA to immobilized Hb-AGE, compounds co-incubated with tPA; details: dye included in the tPA solution
T2 construct: purchased Sigma-Aldrich H7379
T2 sequence (P69905 2-142 limits assumed): as the sequence (P69905 2-142 limits assumed) above
T2 sequence (P68871 2-147 limits assumed): as the sequence (P68871 2-147 limits assumed) above
Method: The small compound library is depicted in Tables 4-5. […] Binding experiments were performed in single wells per compound, in a duplicate experiment. Binding data obtained with this duplicate experiment was averaged.
• 1. […] Coat buffer in control wells. • 2. wash three times with wash buffer • 3. Block all wells with 300 μl 0.5*recommended concentration Roche blocking reagent for 30 minutes at room temperature, with agitation • 4. wash twice • 5. […] Incubate for 30 minutes at room temperature, with agitation • 7. wash five times with TBS/0.1% Tween20 • 8. […] Incubate for 30 minutes at room temperature, with agitation • 10. wash five times with TBS/0.1% Tween20 • 11. Fill wells with 3000× diluted horse raddish peroxidase-labeled polyclonal rabbit anti-mouse antibody (RAMPO, DAKOCytomation) • 12. Incubate for 20 minutes at room temperature, with agitation • 13. Wash five times with TBS/0.1% Tween20 • 14. Wash twice with PBS • 15. Stain with 100 μl TMB, stop with 50 μl 10% H2SO4 • 16. Read absorbance at 450 nm

tPA = tPA (Homo sapiens, UniProt P00750); assay: ELISA binding of β2GPI to immobilized tPA
Sequence of tPA (P00750 36-562): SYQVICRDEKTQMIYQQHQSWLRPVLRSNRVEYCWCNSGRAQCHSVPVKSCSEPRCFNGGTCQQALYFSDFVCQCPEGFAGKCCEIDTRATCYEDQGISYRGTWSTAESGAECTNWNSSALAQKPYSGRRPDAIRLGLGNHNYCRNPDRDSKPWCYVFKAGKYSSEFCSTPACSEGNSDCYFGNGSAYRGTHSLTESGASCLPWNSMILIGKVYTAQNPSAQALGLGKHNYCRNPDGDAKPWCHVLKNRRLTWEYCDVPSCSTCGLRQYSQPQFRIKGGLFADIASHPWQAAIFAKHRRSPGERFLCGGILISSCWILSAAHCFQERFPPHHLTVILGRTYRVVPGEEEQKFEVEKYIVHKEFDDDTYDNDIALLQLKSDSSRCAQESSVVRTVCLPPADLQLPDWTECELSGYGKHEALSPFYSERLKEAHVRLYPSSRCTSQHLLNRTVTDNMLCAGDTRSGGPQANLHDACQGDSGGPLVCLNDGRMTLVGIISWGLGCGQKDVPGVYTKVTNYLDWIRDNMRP
Method: (§1) Binding of β2GPI was assessed with monoclonal antibody 2B2^17.

[4] = system: anti-β2GPI auto-antibodies from antiphospholipid syndrome patients; assay: Interference with binding of anti-β2GPI autoantibodies to immobilized β2GPI; design: species or system human; details: concentration series of β2GPI in solution
Method: β2GPI by recombinant β2GPI and not by plasma derived β2GPI When plasma derived β2GPI is coated onto hydrophilic ELISA plates, anti-β2GPI auto-antibodies isolated from plasma of antiphospholipid syndrome autoimmune patients can bind^18. To study the influence of coincubations of the coated β2GPI with the antibodies together with plasma β2GPI or recombinant β2GPI, concentration series of β2GPI were added to the patient antibodies. Subsequently, binding of the antibodies to coated β2GPI was determined.

factor XII = target: T3, factor XII (Homo sapiens, UniProt P00748); assay: ELISA binding of β2GPI to immobilized factor XII; design: human factor XII from plasma (Calbiochem); purchased Calbiochem; host or cells: human plasma
T3 sequence (P00748 20-615): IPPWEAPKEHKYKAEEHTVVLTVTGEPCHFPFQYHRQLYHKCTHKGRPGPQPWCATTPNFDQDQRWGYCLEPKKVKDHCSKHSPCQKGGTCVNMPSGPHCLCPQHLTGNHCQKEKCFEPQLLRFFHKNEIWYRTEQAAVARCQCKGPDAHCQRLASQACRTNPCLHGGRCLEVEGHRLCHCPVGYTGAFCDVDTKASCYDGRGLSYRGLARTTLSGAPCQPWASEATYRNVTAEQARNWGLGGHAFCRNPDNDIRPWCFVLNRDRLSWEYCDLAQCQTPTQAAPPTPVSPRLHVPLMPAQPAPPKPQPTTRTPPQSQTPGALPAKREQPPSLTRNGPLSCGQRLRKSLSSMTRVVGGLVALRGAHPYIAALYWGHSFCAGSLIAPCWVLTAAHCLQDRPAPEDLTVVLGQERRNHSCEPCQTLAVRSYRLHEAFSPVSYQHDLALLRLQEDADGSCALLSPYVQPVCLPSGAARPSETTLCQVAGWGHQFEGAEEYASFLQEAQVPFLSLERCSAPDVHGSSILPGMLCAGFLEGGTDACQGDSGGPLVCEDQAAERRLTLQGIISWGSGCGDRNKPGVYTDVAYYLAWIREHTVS
Method: as §1

## Nc1c(/N=N/c2ccc(-c3ccc(/N=N/c4cc(S(=O)(=O)O)c5ccccc5c4N)cc3)cc2)cc(S(=O)(=O)O)c2ccccc12 [Congo red]
Amyloid γ-globulins; 500 μM Congo red, diluted 7H2H2 cell culture medium
  inhibition of 7H2H2 binding to amyloid γ-globulins: approximately 66%
Amyloid γ-globulins; 7H2H2 from 10 times diluted culture medium
  Congo red concentrations that inhibit binding of 7H2H2: higher than 5 μM
[1]
  inhibition of tPA binding to immobilized amyloid-β and glycated albumin: effectively inhibited
[2]
  influence on binding of IgIV to immobilized Hb-AGE: fully blocks IgIV binding
[3]
  influence on binding of tPA to immobilized misfolded protein: inhibits binding of tPA

## Cc1ccc2c(c1)sc(-c1ccc(N(C)C)cc1)[n+]2C.[Cl-] [Thioflavin T]
[1]
  inhibition of tPA binding to immobilized amyloid-β and glycated albumin: not by ThT
[2]
  influence on binding of IgIV to immobilized Hb-AGE: enhance the binding of IgIV
[3]
  influence on binding of tPA to immobilized misfolded protein: promotes binding of tPA

B1: plasma β2GPI: β2-glycoprotein I purified from fresh human plasma (protein, UniProt P02749 20-345, looked up)
Beta-2-glycoprotein 1: GRTCPKPDDLPFSTVVPLKTFYEPGEEITYSCKPGYVSRGGMRKFICPLTGLWPINTLKCTPRVCPFAGILENGAVRYTTFEYPNTISFSCNTGFYLNGADSAKCTEEGKWSPELPVCAPIICPPPSIPTFATLRVYKPSAGNNSLYRDTAVFECLPQHAMFGNDTITCTTHGNWTKLPECREVKCPFPSRPDNGFVNYPAKPTLYYKDKATFGCHDGYSLDGPEEIECTKLGNWSAMPSCKASCKVPVKKATVVYQGERVKIQEKFKNGMLHGDKVSFFCKNKEKKCSYTEDAQCIDGTIEVPKCFKEHSSLAFWKTDASDVKPC
tPA
  binding to tPA: not bind
[4]
  inhibition of binding of anti-β2GPI auto-antibodies to immobilized β2GPI: has a minor effect on antibody binding
Factor XII
  binding to factor XII: not bind
